{
  "source": "the kinase profiling compilation of Christmann-Franck et al. (2016)",
  "test_in_all_cases": "KINOMEscan competition binding",
  "conditions_in_all_cases": "compound 2.0 µM",
  "key": {"[1]": {"target": "DDR1 (human) (UniProt Q08345)"}, "[2]": {"target": "TNK2 (human) (UniProt Q07912)"}, "[3]": {"target": "MAP4K2 (human) (UniProt Q12851)"}, "[4]": {"target": "CDC42BPB (human) (UniProt Q9Y5S2)"}, "[5]": {"target": "MAP4K1 (human) (UniProt Q92918)"}, "[6]": {"target": "HIPK2 (human) (UniProt Q9H2X6)"}, "[7]": {"target": "ACVRL1 (human) (UniProt P37023)"}, "[8]": {"target": "CAMK1D (human) (UniProt Q8IU85)"}, "[9]": {"target": "MARK3 (human) (UniProt P27448)"}, "[10]": {"tested_on": "PIK3CA (human), P42336 [C420R]"}, "[11]": {"target": "FGFR1 (human) (UniProt P11362)"}, "[12]": {"target": "PAK2 (human) (UniProt Q13177)", "sequence (Q13177 whole entry, looked up)": "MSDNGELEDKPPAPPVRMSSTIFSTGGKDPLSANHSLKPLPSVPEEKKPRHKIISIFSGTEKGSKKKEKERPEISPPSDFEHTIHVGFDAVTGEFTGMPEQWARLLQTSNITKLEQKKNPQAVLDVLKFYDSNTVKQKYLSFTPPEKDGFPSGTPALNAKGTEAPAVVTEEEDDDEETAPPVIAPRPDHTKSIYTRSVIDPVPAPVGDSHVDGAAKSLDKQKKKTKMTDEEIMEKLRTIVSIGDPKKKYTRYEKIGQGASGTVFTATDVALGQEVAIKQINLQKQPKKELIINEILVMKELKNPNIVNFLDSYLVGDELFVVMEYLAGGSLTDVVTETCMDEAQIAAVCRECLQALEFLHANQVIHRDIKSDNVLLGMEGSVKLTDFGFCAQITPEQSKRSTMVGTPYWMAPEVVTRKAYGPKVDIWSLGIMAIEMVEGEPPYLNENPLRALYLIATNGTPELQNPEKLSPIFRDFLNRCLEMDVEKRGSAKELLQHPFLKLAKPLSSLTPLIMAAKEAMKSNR"}, "[13]": {"target": "DCLK2 (human) (UniProt Q8N568)"}, "[14]": {"target": "PIP5K1C (human) (UniProt O60331)"}, "[15]": {"tested_on": "ABL1 (human), P00519 [Y253F]"}, "[16]": {"target": "ERN1 (human) (UniProt O75460)"}, "[17]": {"tested_on": "KIT (human), P10721 [V559D/T670I]"}, "[18]": {"target": "PIK3C2B (human) (UniProt O00750)"}, "[19]": {"target": "TLK2 (human) (UniProt Q86UE8)"}, "[20]": {"target": "PIK3CB (human) (UniProt P42338)", "sequence (P42338 whole entry, looked up)": "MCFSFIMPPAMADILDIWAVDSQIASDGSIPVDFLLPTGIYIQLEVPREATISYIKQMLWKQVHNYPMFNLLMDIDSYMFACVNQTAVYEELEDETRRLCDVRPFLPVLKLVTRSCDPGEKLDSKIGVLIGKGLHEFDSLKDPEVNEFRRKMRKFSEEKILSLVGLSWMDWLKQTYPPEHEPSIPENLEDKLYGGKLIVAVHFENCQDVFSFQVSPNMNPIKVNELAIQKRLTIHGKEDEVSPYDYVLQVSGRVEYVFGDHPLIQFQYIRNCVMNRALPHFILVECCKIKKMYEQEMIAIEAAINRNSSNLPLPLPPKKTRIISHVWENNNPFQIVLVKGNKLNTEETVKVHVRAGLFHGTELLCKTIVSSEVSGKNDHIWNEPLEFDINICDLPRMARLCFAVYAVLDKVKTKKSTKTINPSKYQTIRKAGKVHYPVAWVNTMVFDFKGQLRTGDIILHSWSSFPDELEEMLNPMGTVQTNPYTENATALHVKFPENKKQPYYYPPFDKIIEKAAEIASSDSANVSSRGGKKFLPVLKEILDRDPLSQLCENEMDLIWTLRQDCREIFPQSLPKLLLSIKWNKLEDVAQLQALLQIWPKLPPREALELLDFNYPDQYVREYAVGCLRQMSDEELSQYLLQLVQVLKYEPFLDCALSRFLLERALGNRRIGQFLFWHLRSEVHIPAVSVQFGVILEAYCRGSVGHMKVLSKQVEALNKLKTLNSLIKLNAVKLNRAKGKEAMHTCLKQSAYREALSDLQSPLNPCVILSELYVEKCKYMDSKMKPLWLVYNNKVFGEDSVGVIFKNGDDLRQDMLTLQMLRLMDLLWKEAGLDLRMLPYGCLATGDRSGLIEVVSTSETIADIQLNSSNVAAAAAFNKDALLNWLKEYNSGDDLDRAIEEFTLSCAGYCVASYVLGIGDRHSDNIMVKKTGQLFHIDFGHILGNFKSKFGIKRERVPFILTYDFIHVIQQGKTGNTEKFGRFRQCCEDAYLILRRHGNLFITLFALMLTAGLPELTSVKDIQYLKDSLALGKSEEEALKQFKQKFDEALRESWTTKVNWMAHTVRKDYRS"}, "[21]": {"target": "FYN (human) (UniProt P06241)", "sequence (P06241 whole entry, looked up)": "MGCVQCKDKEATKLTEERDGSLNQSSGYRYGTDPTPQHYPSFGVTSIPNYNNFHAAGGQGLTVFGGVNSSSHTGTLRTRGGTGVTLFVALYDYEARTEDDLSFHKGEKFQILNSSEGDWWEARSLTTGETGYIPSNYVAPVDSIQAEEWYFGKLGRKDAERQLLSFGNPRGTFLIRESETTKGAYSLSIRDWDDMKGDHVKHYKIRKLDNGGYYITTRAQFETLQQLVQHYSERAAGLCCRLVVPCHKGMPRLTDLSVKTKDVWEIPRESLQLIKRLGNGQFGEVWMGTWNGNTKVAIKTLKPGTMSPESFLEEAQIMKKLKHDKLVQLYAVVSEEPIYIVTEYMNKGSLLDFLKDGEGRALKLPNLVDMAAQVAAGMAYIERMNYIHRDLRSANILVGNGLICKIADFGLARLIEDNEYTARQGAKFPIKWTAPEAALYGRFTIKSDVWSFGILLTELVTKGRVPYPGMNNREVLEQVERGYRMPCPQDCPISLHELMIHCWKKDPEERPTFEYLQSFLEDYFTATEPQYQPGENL"}, "[22]": {"target": "MAP3K15 (human) (UniProt Q6ZN16)"}, "[23]": {"target": "RPS6KA2 KD1 (human) (UniProt Q15349)"}, "[24]": {"target": "PIK3CA (human) (UniProt P42336)"}, "[25]": {"tested_on": "RET (human), P07949 [V804L]"}, "[26]": {"target": "STK10 (human) (UniProt O94804)", "sequence (O94804 whole entry, looked up)": "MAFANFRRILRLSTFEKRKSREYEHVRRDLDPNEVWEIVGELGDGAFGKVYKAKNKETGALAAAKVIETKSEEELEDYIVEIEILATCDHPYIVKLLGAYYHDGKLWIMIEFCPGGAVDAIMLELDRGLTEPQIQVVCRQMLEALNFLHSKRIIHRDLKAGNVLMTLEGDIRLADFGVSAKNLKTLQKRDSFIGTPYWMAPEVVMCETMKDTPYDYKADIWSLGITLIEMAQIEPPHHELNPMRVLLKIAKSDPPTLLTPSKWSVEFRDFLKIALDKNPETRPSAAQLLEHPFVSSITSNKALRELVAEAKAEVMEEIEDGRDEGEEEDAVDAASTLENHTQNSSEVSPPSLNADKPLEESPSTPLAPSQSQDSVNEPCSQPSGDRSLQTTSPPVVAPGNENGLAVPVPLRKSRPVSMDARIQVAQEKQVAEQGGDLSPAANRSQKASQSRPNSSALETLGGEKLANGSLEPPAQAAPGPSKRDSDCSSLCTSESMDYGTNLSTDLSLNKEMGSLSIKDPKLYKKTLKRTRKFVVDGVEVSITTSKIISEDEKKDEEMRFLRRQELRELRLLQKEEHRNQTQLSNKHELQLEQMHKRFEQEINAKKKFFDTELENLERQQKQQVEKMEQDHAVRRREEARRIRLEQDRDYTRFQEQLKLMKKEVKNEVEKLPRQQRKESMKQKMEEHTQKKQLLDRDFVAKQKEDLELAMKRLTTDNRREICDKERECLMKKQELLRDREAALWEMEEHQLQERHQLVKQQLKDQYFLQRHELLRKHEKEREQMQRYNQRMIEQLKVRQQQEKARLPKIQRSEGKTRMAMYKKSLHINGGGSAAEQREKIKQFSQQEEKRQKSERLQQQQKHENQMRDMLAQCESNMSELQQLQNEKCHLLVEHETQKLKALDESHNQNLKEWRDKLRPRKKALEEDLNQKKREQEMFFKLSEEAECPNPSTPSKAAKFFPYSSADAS"}, "[27]": {"target": "MAK (human) (UniProt P20794)"}, "[28]": {"target": "CDK16 (human) (UniProt Q00536)"}, "[29]": {"target": "RIPK4 (human) (UniProt P57078)"}, "[30]": {"target": "MINK1 (human) (UniProt Q8N4C8)"}, "[31]": {"tested_on": "EGFR (human), P00533 [747-751 del / S ins]"}, "[32]": {"target": "DYRK1A (human) (UniProt Q13627)"}, "[33]": {"target": "MAP2K4 (human) (UniProt P45985)"}, "[34]": {"target": "CDC42BPG (human) (UniProt Q6DT37)"}, "[35]": {"target": "GRK4 (human) (UniProt P32298)", "sequence (P32298 whole entry, looked up)": "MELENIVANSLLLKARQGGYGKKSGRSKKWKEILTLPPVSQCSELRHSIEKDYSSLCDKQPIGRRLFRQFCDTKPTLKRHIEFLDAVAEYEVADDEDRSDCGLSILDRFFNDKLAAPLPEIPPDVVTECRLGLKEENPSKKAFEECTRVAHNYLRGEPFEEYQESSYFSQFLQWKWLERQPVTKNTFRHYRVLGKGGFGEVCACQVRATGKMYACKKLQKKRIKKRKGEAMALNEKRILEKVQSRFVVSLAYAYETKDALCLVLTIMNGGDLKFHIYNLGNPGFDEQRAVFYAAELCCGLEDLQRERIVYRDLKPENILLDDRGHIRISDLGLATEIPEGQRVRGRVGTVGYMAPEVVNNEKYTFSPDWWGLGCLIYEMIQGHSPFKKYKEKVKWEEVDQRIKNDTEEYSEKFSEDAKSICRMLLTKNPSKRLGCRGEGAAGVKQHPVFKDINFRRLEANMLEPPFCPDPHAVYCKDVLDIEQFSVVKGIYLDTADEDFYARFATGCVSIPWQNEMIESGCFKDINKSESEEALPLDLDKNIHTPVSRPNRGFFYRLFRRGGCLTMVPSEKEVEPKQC"}, "[36]": {"target": "ADCK4 (human) (UniProt Q96D53)", "sequence (Q96D53 whole entry, looked up)": "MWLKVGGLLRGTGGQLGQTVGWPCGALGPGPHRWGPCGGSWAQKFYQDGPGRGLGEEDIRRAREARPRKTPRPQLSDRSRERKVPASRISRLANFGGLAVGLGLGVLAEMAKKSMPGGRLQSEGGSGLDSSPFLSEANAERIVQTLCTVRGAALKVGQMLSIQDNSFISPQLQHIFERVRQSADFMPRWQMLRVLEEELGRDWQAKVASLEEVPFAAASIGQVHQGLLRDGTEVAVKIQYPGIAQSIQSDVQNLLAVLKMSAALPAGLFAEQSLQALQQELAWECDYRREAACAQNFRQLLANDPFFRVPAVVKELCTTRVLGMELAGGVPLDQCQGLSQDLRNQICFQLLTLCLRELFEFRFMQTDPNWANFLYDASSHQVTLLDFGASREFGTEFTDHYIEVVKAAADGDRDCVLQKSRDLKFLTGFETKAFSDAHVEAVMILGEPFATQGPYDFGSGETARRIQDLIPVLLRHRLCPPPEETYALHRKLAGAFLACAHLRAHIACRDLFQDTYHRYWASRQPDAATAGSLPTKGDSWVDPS"}, "[37]": {"target": "MAP2K6 (human) (UniProt P52564)"}, "[38]": {"target": "ROCK1 (human) (UniProt Q13464)"}, "[39]": {"tested_on": "MET (human), P08581 [Y1235D]"}, "[40]": {"target": "KDR (human) (UniProt P35968)"}, "[41]": {"target": "FGFR2 (human) (UniProt P21802)", "sequence (P21802 whole entry, looked up)": "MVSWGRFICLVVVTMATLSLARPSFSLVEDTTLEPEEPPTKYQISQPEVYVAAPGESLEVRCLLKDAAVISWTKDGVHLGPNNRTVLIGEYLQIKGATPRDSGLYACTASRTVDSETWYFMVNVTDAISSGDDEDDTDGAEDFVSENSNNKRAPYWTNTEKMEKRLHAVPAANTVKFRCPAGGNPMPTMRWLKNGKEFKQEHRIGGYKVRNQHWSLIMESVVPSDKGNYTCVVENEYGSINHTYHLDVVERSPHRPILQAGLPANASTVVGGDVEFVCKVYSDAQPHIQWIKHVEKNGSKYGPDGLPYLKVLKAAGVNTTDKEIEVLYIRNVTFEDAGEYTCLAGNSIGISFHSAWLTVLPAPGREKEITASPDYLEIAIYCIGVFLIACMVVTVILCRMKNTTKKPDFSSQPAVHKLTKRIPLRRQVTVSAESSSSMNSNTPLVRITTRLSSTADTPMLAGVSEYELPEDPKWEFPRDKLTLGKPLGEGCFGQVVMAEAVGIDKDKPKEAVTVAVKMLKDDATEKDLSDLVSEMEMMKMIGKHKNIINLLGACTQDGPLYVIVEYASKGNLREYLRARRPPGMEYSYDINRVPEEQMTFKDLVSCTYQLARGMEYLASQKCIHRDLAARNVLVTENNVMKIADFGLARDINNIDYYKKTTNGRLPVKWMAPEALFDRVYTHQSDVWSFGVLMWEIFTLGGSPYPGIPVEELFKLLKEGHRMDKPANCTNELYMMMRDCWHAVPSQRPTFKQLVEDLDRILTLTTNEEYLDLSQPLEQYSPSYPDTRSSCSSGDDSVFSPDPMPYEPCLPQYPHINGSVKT"}, "[42]": {"target": "ICK (human) (UniProt Q9UPZ9)"}, "[43]": {"target": "PRKCQ (human) (UniProt Q04759)"}},
  "data": [
    {"smiles": "N#Cc1ccc2ncnc(NCCc3ccc4ccccc4c3)c2c1", "values": [
      {"measurement": "kinase still bound, per cent of control", "setting": "[1]", "value": 96, "unit": "%"},
      {"measurement": "kinase still bound, per cent of control", "setting": "[2]", "value": 97, "unit": "%"},
      {"measurement": "kinase still bound, per cent of control", "setting": "[3]", "value": 60, "unit": "%"},
      {"measurement": "kinase still bound, per cent of control", "setting": "[4]", "value": 100, "unit": "%"},
      {"measurement": "kinase still bound, per cent of control", "setting": "[5]", "value": 81, "unit": "%"},
      {"measurement": "kinase still bound, per cent of control", "setting": "[6]", "value": 87, "unit": "%"},
      {"measurement": "kinase still bound, per cent of control", "setting": "[7]", "value": 100, "unit": "%"},
      {"measurement": "kinase still bound, per cent of control", "setting": "[8]", "value": 100, "unit": "%"},
      {"measurement": "kinase still bound, per cent of control", "setting": "[9]", "value": 95, "unit": "%"},
      {"measurement": "kinase still bound, per cent of control", "setting": "[10]", "value": 100, "unit": "%"},
      {"measurement": "kinase still bound, per cent of control", "setting": "[11]", "value": 92, "unit": "%"},
      {"measurement": "kinase still bound, per cent of control", "setting": "[12]", "value": 82, "unit": "%"},
      {"measurement": "kinase still bound, per cent of control", "setting": "[13]", "value": 100, "unit": "%"},
      {"measurement": "kinase still bound, per cent of control", "setting": "[14]", "value": 100, "unit": "%"},
      {"measurement": "kinase still bound, per cent of control", "setting": "[15]", "value": 100, "unit": "%"},
      {"measurement": "kinase still bound, per cent of control", "setting": "[16]", "value": 100, "unit": "%"},
      {"measurement": "kinase still bound, per cent of control", "setting": "[17]", "value": 86, "unit": "%"},
      {"measurement": "kinase still bound, per cent of control", "setting": "[18]", "value": 85, "unit": "%"},
      {"measurement": "kinase still bound, per cent of control", "setting": "[19]", "value": 94, "unit": "%"},
      {"measurement": "kinase still bound, per cent of control", "setting": "[20]", "value": 39, "unit": "%"},
      {"measurement": "kinase still bound, per cent of control", "setting": "[21]", "value": 98, "unit": "%"},
      {"measurement": "kinase still bound, per cent of control", "setting": "[22]", "value": 91, "unit": "%"},
      {"measurement": "kinase still bound, per cent of control", "setting": "[23]", "value": 100, "unit": "%"},
      {"measurement": "kinase still bound, per cent of control", "setting": "[24]", "value": 78, "unit": "%"},
      {"measurement": "kinase still bound, per cent of control", "setting": "[25]", "value": 92, "unit": "%"},
      {"measurement": "kinase still bound, per cent of control", "setting": "[26]", "value": 67, "unit": "%"},
      {"measurement": "kinase still bound, per cent of control", "setting": "[27]", "value": 99, "unit": "%"},
      {"measurement": "kinase still bound, per cent of control", "setting": "[28]", "value": 100, "unit": "%"},
      {"measurement": "kinase still bound, per cent of control", "setting": "[29]", "value": 100, "unit": "%"},
      {"measurement": "kinase still bound, per cent of control", "setting": "[30]", "value": 100, "unit": "%"},
      {"measurement": "kinase still bound, per cent of control", "setting": "[31]", "value": 71, "unit": "%"},
      {"measurement": "kinase still bound, per cent of control", "setting": "[32]", "value": 100, "unit": "%"},
      {"measurement": "kinase still bound, per cent of control", "setting": "[33]", "value": 89, "unit": "%"},
      {"measurement": "kinase still bound, per cent of control", "setting": "[34]", "value": 92, "unit": "%"},
      {"measurement": "kinase still bound, per cent of control", "setting": "[35]", "value": 89, "unit": "%"},
      {"measurement": "kinase still bound, per cent of control", "setting": "[36]", "value": 100, "unit": "%"},
      {"measurement": "kinase still bound, per cent of control", "setting": "[37]", "value": 100, "unit": "%"},
      {"measurement": "kinase still bound, per cent of control", "setting": "[38]", "value": 100, "unit": "%"},
      {"measurement": "kinase still bound, per cent of control", "setting": "[39]", "value": 100, "unit": "%"},
      {"measurement": "kinase still bound, per cent of control", "setting": "[40]", "value": 86, "unit": "%"},
      {"measurement": "kinase still bound, per cent of control", "setting": "[41]", "value": 90, "unit": "%"},
      {"measurement": "kinase still bound, per cent of control", "setting": "[42]", "value": 100, "unit": "%"},
      {"measurement": "kinase still bound, per cent of control", "setting": "[43]", "value": 100, "unit": "%"}
    ]}
  ]
}
